Reference: US20260234144A1 (TAY THERAPEUTICS LIMITED, priority 2023, published 2026)

Test system: R223X stop codon in the mutated luciferase gene, ADXC8 luciferase reporter cell line
Assay: cells
Type: cell-based
Settings: ADXC8 cells, 24 hours; for Emax / EC (100% of 200 uM G418 response): 24 h; for Emax: read-out: Fold Over Control, maximum fold response relative to 200 μM G418; for EC (100% of 200 uM G418 response): read-out: pC100%, negative logarithm of the concentration giving the same response as 200 μM G418; for pC100%: negative logarithm of the concentration giving the same response as 200 μM G418
Experimental: The read-through activity of compounds was assessed using the ADXC8 luciferase reporter cell line (generated as described in McElroy et al. PLoS Biology (2013), 11, e1001593). […] The amount of luciferase is measured by adding a lysis buffer containing luciferin substrate and detecting luminescence using the following protocol:
ADXC8 cells in assay media (DMEM+10% FBS) were seeded into 96-well tissue culture treated white plates (Greiner) to a density of 13,000 cells per well and incubated for 24 hours at 37° C. in an atmosphere of 5% CO2. […] Plates were incubated for a further 24 hours at 37° C. in an atmosphere of 5% CO2. Cells treated with 200 μM G418 (with 1% DMSO) were used as a positive control.
Cell viability and firefly luciferase activity were measured in the same assay wells. CellTiter-Fluor™ reagent was prepared as per manufacturer's instructions (Promega E7120) and 20 μl of 5× CellTiter-Fluor™ reagent was added to all wells, briefly mixed by orbital shaking (300-500 rpm for −30 seconds) and the plates incubated for 30-45 minutes at 37° C. in an atmosphere of 5% C02. Cell viability was measured by monitoring fluorescence on a CLARIOstar® plate reader (BMG Labtech). Cells containing 1% DMSO were used as a positive control and cells with 400 μM Doxorubicin were used as negative control to define 100 and 0% respectively. ONE-Glo™ luciferase assay buffer (Promega E7120) was prepared according to manufacturer's instructions and 100 μl of luciferase reagent was added to each well and the plate incubated at RT for 3 mins before measuring the luminescence on the CLARIOstar® plate reader (BMG Labtech). Cells treated with 200 μM G418 (with 1% DMSO) were used as a positive control and arbitrarily assigned a value of 100%. Cells treated with 1% DMSO were used as the negative control to define 0% response.
Concentration effect curves were analysed using non-linear regression using the CDD Vault from Collaborative Drug Discovery (Burlingame, CA). […] The bottom and top of the curves were constrained to 0 and the maximum measured response respectively. From the fitted curves, the software derived C100% values (the concentration giving the same response as 200 μM G418) for each compound. The negative logarithm of C100% is reported as pC100% (Table 1). In addition to pC100% values, the maximum fold response relative to 200 μM G418 (Fold over Control) was also captured (Table 1). A pC100% categorisation of ‘-’ in Table 1 represents examples in which a pC100% response was not reached when assayed at a concentration of 100 μM. A pC100% categorisation of ‘*’ in Table 1 represents examples in which a pC100% response was not reached when assayed at a concentration of 30 μM.

## CNc1nc(N[C@@]2(C)CCNC2)nc2nc(C)cc(C)c12 [Example 637]
  Emax: 0 to 100%
  EC (100% of 200 uM G418 response): > 31.6 µM

## Cc1cc(C)c2c(N)nc(NC3CCC(N(C)C)CC3)nc2n1 (stereo not shown) [Example 204]
  Emax: 100 to 3000%
  EC (100% of 200 uM G418 response): 1 to 10 µM

## Cc1nc2nc(NC3CCN(C)CC3)nc(N)c2c(C)c1C [Example 121, 5,6,7-trimethyl-N2-(1-methylpiperidin-4-yl)pyrido[2,3-d]pyrimidine-2,4-diamine]
  Emax: 100 to 3000%
  EC (100% of 200 uM G418 response): 1 to 10 µM

## [2H]C([2H])([2H])Nc1nc(N[C@H]2CN(C)C[C@@H]2O)nc2nc3c(c(C)c12)CCC3 [Example 509, (3S,4S)-1-(methyl-d3)-4-((5-methyl-4-((methyl-da)amino)-7,8-dihydro-6H-cyclopenta[5,6]pyrido[2,3-d]pyrimidin-2-yl)amino)pyrrolidin-3-ol]
  EC (100% of 200 uM G418 response): 0.01 to 0.1 µM

## Cc1cc(C)c2c(N)nc(NCCCN3CCC3)nc2n1 [Example 191]
  Emax: 100 to 3000%
  EC (100% of 200 uM G418 response): 10 to 100 µM

## CCNc1nc(N[C@H]2CNC[C@@H]2O)nc2nc(C)cc(C)c12 [Example 392]
  EC (100% of 200 uM G418 response): 1 to 10 µM

## Nc1nc(NCCCN2CCOCC2)nc2nc(-c3ccccc3)c3c(c12)CCC3 [Example 129, N^3-(3-morpholinopropyl)-6-phenyl-8,9-dihydro-7H-cyclopenta[4,5]pyrido[2,3-d]pyrimidine-1,3-diamine]
  EC (100% of 200 uM G418 response): 1 to 10 µM

## CN1CCC(Nc2nc(N)c3ccc(-c4ccc(CN)cc4)nc3n2)CC1 [Example 63]
  Emax: 100 to 3000%
  EC (100% of 200 uM G418 response): 1 to 10 µM

## Cc1cc(C)c2c(N)nc(NC3CCN(Cc4cc(C(F)(F)F)ccc4O)CC3)nc2n1 [Example 541]
  Emax: 0 to 100%
  EC (100% of 200 uM G418 response): > 31.6 µM

## Cc1cc(C)c2c(N)nc(NC3CCN(Cc4cccc5nc[nH]c45)CC3)nc2n1 [Example 660]
  Emax: 100 to 3000%
  EC (100% of 200 uM G418 response): 1 to 10 µM

## Cc1cc(C)c2c(N)nc(NC3CCCNCC3)nc2n1 (stereo not shown) [Example 140, A2-(azepan-4-yl)-5,7-dimethylpyrido[2,3-d]pyrimidine-2,4-diamine]
  Emax: 100 to 3000%
  EC (100% of 200 uM G418 response): 1 to 10 µM

## COCC1CN(CCCNc2nc(N)c3c(C)cc(C)nc3n2)C1 [Example 188]
  Emax: 0 to 100%
  EC (100% of 200 uM G418 response): > 31.6 µM

## Cc1cc(C)c2c(N)nc(NC3CC4CCC[C@H](C3)N4)nc2n1 (stereo partly shown) [Example 196]
  Emax: 100 to 3000%
  EC (100% of 200 uM G418 response): 1 to 10 µM

## Cc1cc(C)c2c(N)nc(NC3CCN(CC4CCC4)CC3)nc2n1 [Example 454]
  Emax: 100 to 3000%
  EC (100% of 200 uM G418 response): 1 to 10 µM

## Cc1cc(C)c2c(N)nc(NCCC3CCCN(C)C3)nc2n1 (stereo not shown) [Example 159]
  EC (100% of 200 uM G418 response): 1 to 10 µM

## Cc1cc(C)c2c(N)nc(NCCCN3CC4(COC4)C3)nc2n1 [Example 29, N^2-(3-(2-oxa-6-azaspiro[3.3]heptan-6-yl)propyl)-5,7-dimethylpyrido[2,3-d]pyrimidine-2,4-diamine]
  Emax: 100 to 3000%
  EC (100% of 200 uM G418 response): 10 to 100 µM

## CNc1nc(NC2CC3CC2CN3C)nc2nc(C)cc(C)c12 (single isomer, unassigned) [Example 431]
  Emax: 100 to 3000%
  pC100%: + (pC100% > 4.0 ≤ 5.0)

## CN1CCC(Nc2nc(N)c3cc(-c4ccn(C)n4)cnc3n2)CC1 [Example 648]
  Emax: 0 to 100%
  EC (100% of 200 uM G418 response): > 100 µM

## Cc1ccc(CN2CCC(Nc3nc(N)c4c(C)cc(C)nc4n3)CC2)cc1 [Example 543]
  Emax: 100 to 3000%
  EC (100% of 200 uM G418 response): 1 to 10 µM

## C#Cc1ccnc2nc(NC3CCN(C)CC3)nc(N)c12 [Example 249, 5-ethynyl-N^2-(1-methylpiperidin-4-yl)pyrido[2,3-d]pyrimidine-2,4-diamine]
  Emax: 100 to 3000%
  EC (100% of 200 uM G418 response): 10 to 100 µM

## Cc1cc(C)c2c(N)nc(NC3CCN(Cc4ccccc4C(F)(F)F)CC3)nc2n1 [Example 490]
  Emax: 100 to 3000%
  EC (100% of 200 uM G418 response): 10 to 100 µM

## CSc1ccccc1-c1ccc2c(N)nc(NC3CCN(C)CC3)nc2n1 [Example 82]
  EC (100% of 200 uM G418 response): 1 to 10 µM

## CN1CCC(Nc2nc(N)c3ccc(-c4ccc(CO)cc4)nc3n2)CC1 [Example 94]
  Emax: 100 to 3000%
  EC (100% of 200 uM G418 response): 10 to 100 µM

## Cc1cc(C)c2c(N)nc(NC3C[C@H]4CC[C@@H](C3)N4C)nc2n1 (stereo partly shown) [Example 218]
  Emax: 100 to 3000%
  EC (100% of 200 uM G418 response): 1 to 10 µM

## CCCNc1nc(N[C@@H]2CCN(C)C2)nc2nc(C)cc(C)c12 [Example 390]
  Emax: 100 to 3000%
  EC (100% of 200 uM G418 response): 1 to 10 µM

## CNc1nc(N[C@H]2CNC[C@H]2F)nc2nc(C)c3c(c12)CCC3 [Example 347]
  EC (100% of 200 uM G418 response): 0.1 to 1 µM

## CNc1nc(N[C@H]2CCCN(C)CC2)nc2nc(C)cc(C)c12 [Example 386]
  Emax: 100 to 3000%
  EC (100% of 200 uM G418 response): 1 to 10 µM

## Cc1c2c(nc3nc(NC4CCN(Cc5cc(F)cc(F)c5O)CC4)nc(N)c13)CCC2 [Example 654]
  Emax: 100 to 3000%
  EC (100% of 200 uM G418 response): 1 to 10 µM

## CNc1nc(N[C@@H]2CCN(C)C2)nc2nc3c(c(C)c12)CCO3 [Example 514, (R)—N^4,5-dimethyl-N^2-(1-methylpyrrolidin-3-yl)-6,7-dihydrofuro[3′,2′:5,6]pyrido[2,3-d]pyrimidine-2,4-diamine]
  Emax: 100 to 3000%
  EC (100% of 200 uM G418 response): 1 to 10 µM

## Cc1cc(C)c2c(N)nc(NCC3CCCCN3C)nc2n1 (stereo not shown) [Example 144]
  Emax: 100 to 3000%
  EC (100% of 200 uM G418 response): 1 to 10 µM

## Cc1nc2nc(NC3CCN(Cc4ccccc4O)CC3)nc(N)c2c2c1CCC2 [Example 537]
  Emax: 100 to 3000%
  EC (100% of 200 uM G418 response): 0.1 to 1 µM

## CNc1nc(N[C@H]2CN(C(C)C)C[C@H]2F)nc2nc(C)cc(C)c12 [Example 523, N^2-((3S,4R)-4-fluoro-1-isopropylpyrrolidin-3-yl)-N^4,5,7-trimethylpyrido[2,3-d]pyrimidine-2,4-diamine]
  Emax: 100 to 3000%
  EC (100% of 200 uM G418 response): 1 to 10 µM

## CN1CCC(Nc2nc(N)c3ccc(-c4ccccc4Cl)nc3n2)CC1 [Example 115, 7-(2-chlorophenyl)-N^2-(1-methylpiperidin-4-yl) pyrido[2,3-d]pyrimidine-2,4-diamine]
  Emax: 100 to 3000%
  EC (100% of 200 uM G418 response): 1 to 10 µM

## Cc1c2c(nc3nc(NC4CCN(Cc5cn[nH]c5)CC4)nc(N)c13)CCC2 [Example 661]
  Emax: 100 to 3000%
  EC (100% of 200 uM G418 response): 1 to 10 µM

## Cc1cc(C)c2c(NC3CCC3)nc(N[C@@H]3CCNC3)nc2n1 [Example 333]
  Emax: 0 to 100%
  EC (100% of 200 uM G418 response): > 31.6 µM

## Cc1cc(C)c2c(NCC(F)F)nc(N[C@@H]3CCN(C)C3)nc2n1 [Example 636]
  EC (100% of 200 uM G418 response): 1 to 10 µM

## Cc1cc(C)c2c(N)nc(NC3CCN(Cc4ccncc4O)CC3)nc2n1 [Example 564]
  Emax: 100 to 3000%
  EC (100% of 200 uM G418 response): 1 to 10 µM

## Cc1cc(C)c2c(N)nc(NC34CNCC3C4)nc2n1 (single isomer, unassigned) [Example 259, N^2-(3-azabicyclo[3.1.0]hexan-1-yl)-5,7-dimethylpyrido[2,3-d]pyrimidine-2,4-diamine]
  Emax: 100 to 3000%
  pC100%: ++ (pC100% > 5.0 ≤ 6.0)

## CN1CCC(Nc2nc(N)c3ccc(-c4ccc(F)cc4)nc3n2)CC1 [Example 57]
  Emax: 100 to 3000%
  EC (100% of 200 uM G418 response): 1 to 10 µM

## CC#Cc1cnc2nc(NC3CCN(C)CC3)nc(N)c2c1 [Example 42, N^2-(1-methylpiperidin-4-yl)-6-(prop-1-yn-1-yl)pyrido[2,3-d]pyrimidine-2,4-diamine]
  Emax: 0 to 100%
  EC (100% of 200 uM G418 response): > 100 µM

## CNc1nc(N[C@H]2CN(C3CC3)C[C@H]2F)nc2nc(C)cc(C)c12 [Example 519, N^2-((3S,4R)-1-cyclopropyl-4-fluoropyrrolidin-3-yl)-N^4,5,7-trimethylpyrido[2,3-d]pyrimidine-2,4-diamine]
  Emax: 0 to 100%
  EC (100% of 200 uM G418 response): > 31.6 µM

## Cc1cc(C)c2c(N)nc(NC3C4CNC[C@@H]43)nc2n1 (stereo partly shown) [Example 203]
  Emax: 100 to 3000%
  EC (100% of 200 uM G418 response): 1 to 10 µM

## Cc1cc(C)c2c(N)nc(NC3CCN(Cc4cccc(CO)c4)CC3)nc2n1 [Example 482]
  Emax: 100 to 3000%
  EC (100% of 200 uM G418 response): 10 to 100 µM

## CNc1nc(N[C@H]2CNC[C@H](O)C2)nc2nc(C)cc(C)c12 [Example 611]
  EC (100% of 200 uM G418 response): 0.1 to 1 µM

## Cc1cc(C)c2c(NCC(F)(F)F)nc(N[C@@H]3CCN(C)C3)nc2n1 [Example 389]
  Emax: 100 to 3000%
  EC (100% of 200 uM G418 response): 10 to 100 µM
